Experimental data as given in paper PMC8404200, “Synthetic Glycolipids as Molecular Vaccine Adjuvants: Mechanism of Action in Human Cells and In Vivo Activity” (Journal of Medicinal Chemistry, 2021).

Biological target: T1, MD-2 (TLR4/MD-2 complex) (Homo sapiens, UniProt Q9Y6Y9)
T1 construct: gene LY96; Recombinant human TLR4/MD2 complex; with TLR4
Test: SPR (Biacore X100) on immobilized recombinant human TLR4/MD-2; agonism supported in HEK-Blue hTLR4 cells
Assay type: binding

T1 sequence (Q9Y6Y9 19-160): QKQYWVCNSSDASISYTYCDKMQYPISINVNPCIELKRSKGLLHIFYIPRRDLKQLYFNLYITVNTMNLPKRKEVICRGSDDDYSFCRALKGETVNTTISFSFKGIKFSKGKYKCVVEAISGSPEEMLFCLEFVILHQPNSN
T1 sequence (O00206 24-839 partner): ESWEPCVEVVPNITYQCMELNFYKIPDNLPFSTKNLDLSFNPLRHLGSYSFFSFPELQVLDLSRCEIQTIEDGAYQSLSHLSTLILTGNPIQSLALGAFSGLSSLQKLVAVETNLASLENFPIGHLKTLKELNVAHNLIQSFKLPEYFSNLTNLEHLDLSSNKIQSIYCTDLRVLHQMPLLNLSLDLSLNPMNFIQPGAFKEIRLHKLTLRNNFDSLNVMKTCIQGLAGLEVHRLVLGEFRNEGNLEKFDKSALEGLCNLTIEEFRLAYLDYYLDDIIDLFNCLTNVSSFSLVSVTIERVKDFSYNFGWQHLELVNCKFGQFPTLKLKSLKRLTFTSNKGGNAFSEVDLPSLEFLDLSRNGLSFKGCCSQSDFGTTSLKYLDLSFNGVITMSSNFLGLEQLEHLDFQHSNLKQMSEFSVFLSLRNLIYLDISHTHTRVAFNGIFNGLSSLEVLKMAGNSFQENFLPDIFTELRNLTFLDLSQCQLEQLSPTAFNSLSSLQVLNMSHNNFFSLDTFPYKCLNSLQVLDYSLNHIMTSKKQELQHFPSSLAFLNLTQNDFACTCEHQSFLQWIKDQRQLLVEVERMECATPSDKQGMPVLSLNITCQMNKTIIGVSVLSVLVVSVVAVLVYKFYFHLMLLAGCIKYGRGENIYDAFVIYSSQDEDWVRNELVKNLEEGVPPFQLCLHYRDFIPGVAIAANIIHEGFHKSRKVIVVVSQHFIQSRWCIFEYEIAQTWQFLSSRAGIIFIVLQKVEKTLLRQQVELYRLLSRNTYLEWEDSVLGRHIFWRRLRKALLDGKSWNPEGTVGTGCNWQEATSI

Row | Kd [nM] | Compound
1 | 180 | CCCCCCCCCCCCCC(=O)N[C@H]1[C@@H](OP(=O)(O)O)O[C@H](CO)[C@@H](OC(=O)CCCCCCCCCCCCC)[C@@H]1OC(=O)CCCCCCCCCCCCC [FP11]
2 | 570 | CCCCCCCCCCCC(=O)N[C@H]1[C@@H](OP(=O)(O)O)O[C@H](CO)[C@@H](OC(=O)CCCCCCCCCCC)[C@@H]1OC(=O)CCCCCCCCCCC [FP18]
